Species: Rattus norvegicus
Assay: Open TG-GATES - Regimen: Single
Assay type: toxicity, organism-based, Sprague-Dawley
Set-up: regimen Single, gender Male, age 6 weeks
Details: in vivo, po, 1000 mg/kg, route gavage, dose level High; for APTT / Bas / Eos / Fbg / Hb / Ht / Lym / MCH / MCHC / MCV / Mono / Neu / PT / Plat / RBC / Ret / WBC: tissue Blood; for KIDNEY_L / KIDNEY_R / KIDNEY_TOTAL: tissue Kidney; for LIVER: tissue Liver; for A/G / ALP / ALT / AST / BUN / CRE / Ca / Cl / DBIL / GLC / IP / K / LDH / Na / PL / RALB / TBIL / TC / TG / TP / gamma-GTP: tissue Plasma

CC(C)(S)[C@@H](N)C(=O)O [PENICILLAMINE]
TERMINAL_BW (3 h): 206.7 g | APTT (3 h): 16.4 s | Bas (3 h): 0% | Eos (3 h): 1% | Fbg (3 h): 281.4 mg/dL | Hb (3 h): 13.2 g/dL | Ht (3 h): 40.7% | Lym (3 h): 77% | MCH (3 h): 20.5 pg | MCHC (3 h): 32.3% | MCV (3 h): 63.4 fL | Mono (3 h): 3.2% | Neu (3 h): 18.4% | PT (3 h): 15.6 s | Plat (3 h): 128.4 x10_4/uL | RBC (3 h): 642.8 x10_4/ul | Ret (3 h): 9.2% | WBC (3 h): 83.2 x10_2/uL | KIDNEY_L (3 h): 0.9 g | KIDNEY_R (3 h): 0.9 g | KIDNEY_TOTAL (3 h): 1.8 g | LIVER (3 h): 8.6 g | A/G (3 h): 0.9 | ALP (3 h): 756.4 IU/L | ALT (3 h): 41.8 IU/L | AST (3 h): 75.6 IU/L | BUN (3 h): 9 mg/dL | CRE (3 h): 0.2 mg/dL | Ca (3 h): 10.7 mg/dL | Cl (3 h): 104.6 meq/L | DBIL (3 h): 0.01 mg/dL | GLC (3 h): 187 mg/dL | IP (3 h): 8.3 mg/dL | K (3 h): 4.3 meq/L | LDH (3 h): 74 IU/L | Na (3 h): 141.4 meq/L | PL (3 h): 141 mg/dL | RALB (3 h): 2.5 g/dL | TBIL (3 h): 0.032 mg/dL | TC (3 h): 78 mg/dL | TG (3 h): 67.2 mg/dL | TP (3 h): 5.1 g/dL | gamma-GTP (3 h): 1.2 IU/L | TERMINAL_BW (6 h): 203.8 g | APTT (6 h): 16.5 s | Bas (6 h): 0% | Eos (6 h): 0.6% | Fbg (6 h): 314 mg/dL | Hb (6 h): 13.2 g/dL | Ht (6 h): 41% | Lym (6 h): 71.8% | MCH (6 h): 20.8 pg | MCHC (6 h): 32.1% | MCV (6 h): 64.7 fL | Mono (6 h): 4.2% | Neu (6 h): 22.2% | PT (6 h): 14.8 s | Plat (6 h): 126.9 x10_4/uL | RBC (6 h): 635.2 x10_4/ul | Ret (6 h): 9.5% | WBC (6 h): 86.9 x10_2/uL | KIDNEY_L (6 h): 0.9 g | KIDNEY_R (6 h): 0.9 g | KIDNEY_TOTAL (6 h): 1.8 g | LIVER (6 h): 8 g | A/G (6 h): 1 | ALP (6 h): 741.6 IU/L | ALT (6 h): 35.8 IU/L | AST (6 h): 70.8 IU/L | BUN (6 h): 8 mg/dL | CRE (6 h): 0.2 mg/dL | Ca (6 h): 10.6 mg/dL | Cl (6 h): 105.4 meq/L | DBIL (6 h): 0.004 mg/dL | GLC (6 h): 173.6 mg/dL | IP (6 h): 9.3 mg/dL | K (6 h): 4.2 meq/L | LDH (6 h): 80.8 IU/L | Na (6 h): 141.4 meq/L | PL (6 h): 134.6 mg/dL | RALB (6 h): 2.5 g/dL | TBIL (6 h): 0.028 mg/dL | TC (6 h): 79.8 mg/dL | TG (6 h): 31.4 mg/dL | TP (6 h): 5.2 g/dL | gamma-GTP (6 h): 1 IU/L | TERMINAL_BW (9 h): 203.4 g | APTT (9 h): 16.5 s | Bas (9 h): 0% | Eos (9 h): 1% | Fbg (9 h): 294.2 mg/dL | Hb (9 h): 13 g/dL | Ht (9 h): 40.6% | Lym (9 h): 73.6% | MCH (9 h): 20.2 pg | MCHC (9 h): 32.2% | MCV (9 h): 62.9 fL | Mono (9 h): 3.2% | Neu (9 h): 21.6% | PT (9 h): 15.4 s | Plat (9 h): 116 x10_4/uL | RBC (9 h): 645 x10_4/ul | Ret (9 h): 9% | WBC (9 h): 82.2 x10_2/uL | KIDNEY_L (9 h): 1 g | KIDNEY_R (9 h): 0.9 g | KIDNEY_TOTAL (9 h): 1.9 g | LIVER (9 h): 7.6 g | A/G (9 h): 1 | ALP (9 h): 664.8 IU/L | ALT (9 h): 31.4 IU/L | AST (9 h): 65.4 IU/L | BUN (9 h): 7.8 mg/dL | CRE (9 h): 0.2 mg/dL | Ca (9 h): 10.5 mg/dL | Cl (9 h): 107 meq/L | DBIL (9 h): 0.01 mg/dL | GLC (9 h): 177 mg/dL | IP (9 h): 10.2 mg/dL | K (9 h): 4.3 meq/L | LDH (9 h): 67.4 IU/L | Na (9 h): 142.6 meq/L | PL (9 h): 127 mg/dL | RALB (9 h): 2.5 g/dL | TBIL (9 h): 0.036 mg/dL | TC (9 h): 73.2 mg/dL | TG (9 h): 21.4 mg/dL | TP (9 h): 5.1 g/dL | gamma-GTP (9 h): 0.8 IU/L | TERMINAL_BW (24 h): 215.2 g | APTT (24 h): 16.2 s | Bas (24 h): 0% | Eos (24 h): 1.2% | Fbg (24 h): 291 mg/dL | Hb (24 h): 13.4 g/dL | Ht (24 h): 41.2% | Lym (24 h): 75.4% | MCH (24 h): 20.8 pg | MCHC (24 h): 32.4% | MCV (24 h): 64.2 fL | Mono (24 h): 3.2% | Neu (24 h): 19.8% | PT (24 h): 14.2 s | Plat (24 h): 116.1 x10_4/uL | RBC (24 h): 642.2 x10_4/ul | Ret (24 h): 7.1% | WBC (24 h): 85.6 x10_2/uL | KIDNEY_L (24 h): 0.9 g | KIDNEY_R (24 h): 0.9 g | KIDNEY_TOTAL (24 h): 1.9 g | LIVER (24 h): 9.8 g | A/G (24 h): 0.9 | ALP (24 h): 1271.2 IU/L | ALT (24 h): 47.8 IU/L | AST (24 h): 68 IU/L | BUN (24 h): 14.6 mg/dL | CRE (24 h): 0.2 mg/dL | Ca (24 h): 11 mg/dL | Cl (24 h): 105.2 meq/L | DBIL (24 h): 0.012 mg/dL | GLC (24 h): 176 mg/dL | IP (24 h): 9 mg/dL | K (24 h): 4.1 meq/L | LDH (24 h): 86.8 IU/L | Na (24 h): 143.8 meq/L | PL (24 h): 155.6 mg/dL | RALB (24 h): 2.6 g/dL | TBIL (24 h): 0.028 mg/dL | TC (24 h): 85 mg/dL | TG (24 h): 85.2 mg/dL | TP (24 h): 5.4 g/dL | gamma-GTP (24 h): 0.8 IU/L
